Test results published in patent publication US9980979B2, “Compounds and methods for enhancing erythropoiesis” (NATIONAL YANG-MING UNIVERSITY, priority 2008, dated 2018).

Key:
[1] = test system: cisplatin-induced acute renal failure animal model; test: cisplatin-induced acute renal failure animal model: red blood cell count and blood urea nitrogen; assay type: in vivo, C57BL/6JNarl mice
Description: The effects of Compound A treatment on cisplatin-induced acute renal failure animal model were investigated. C57BL/6JNarl mice (8-week-old) were purchased from the National Laboratory Animal Center (NLAC, Taiwan). Cisplatin (Sigma-Aldrich) was dissolved in normal saline (0.9% (w/v) sodium chloride, Sigma-Aldrich) at a concentration of 1 mg/ml, and injected into mice intraperitoneally (i.p.) according to the following schedule: day 1, 7 mg/kg; day 5, 6 mg/kg; and day 9, 6 mg/kg. For cisplatin-untreated normal mice group, normal saline injections of corresponding volumes were given i.p. in parallel. At day 13, serum samples were collected and blood urea nitrogen (BUN) contents were assayed. Cisplatin-injected mice with BUN levels more than 100 mg/dl and the cisplatin-untreated normal mice were further divided into 5 groups, 6 mice per group, for feeding with Compound A for 2 weeks: (1) Normal group: Mice were injected with normal saline and followed by feeding with a standard diet; (2) Control group: Mice were injected with cisplatin and followed by feeding with a standard diet; (3) Pomu 10 mg/kg/day group: Mice were injected with cisplatin and followed by feeding with Compound A at the dose of 10 mg/kg/day; (4) Pomu 30 mg/kg/day group: Mice were injected with cisplatin and followed by Compound A at the dose of 30 mg/kg/day; (5) Pomu 90 mg/kg/day group: Mice were injected with cisplatin and followed by Compound A treatment at the dose of 90 mg/kg/day. Blood samples were collected from the retro-orbital sinus of mice at day 0, 5, 10, 13, 18, 23 and 28. Red blood cell (RBC) concentrations were determined by complete blood cell count using Sysmex® Kx-21 hematology analyzer. Blood urea nitrogen (BUN) levels were determined by urease GLDH method (Urea FS, DiaSys). Results were expressed as mean±S.E. (n=5˜6). Statistical significance was evaluated by Student's t test (##P<0.01 versus normal group and **P<0.01 versus control group). […] The horizontal arrow in FIGS. 7 and 8 represents Compound A treatment (mg/Kg/day). […] The results were in agreement with the ability of the Compound A in enhancing erythropoiesis.

[2] = test system: erythroid progenitor cells (bone marrow cells); test: BFU-E assay on bone marrow cells isolated from treated mice of the cisplatin-induced acute renal failure model; assay type: in vivo, C57BL/6JNarl mice; conditions: 10~90 mg/kg/day; cells isolated day 28, cultured 12 days; versus control group; FIG. 11
Description: The effects of Compound A treatment on cisplatin-induced acute renal failure animal model were investigated. C57BL/6JNarl mice (8-week-old) were purchased from the National Laboratory Animal Center (NLAC, Taiwan). Cisplatin (Sigma-Aldrich) was dissolved in normal saline (0.9% (w/v) sodium chloride, Sigma-Aldrich) at a concentration of 1 mg/ml, and injected into mice intraperitoneally (i.p.) according to the following schedule: day 1, 7 mg/kg; day 5, 6 mg/kg; and day 9, 6 mg/kg. For cisplatin-untreated normal mice group, normal saline injections of corresponding volumes were given i.p. in parallel. At day 13, serum samples were collected and blood urea nitrogen (BUN) contents were assayed. […]
At the end of the experiments described in EXAMPLE 6 (i.e., day 28), mice were sacrificed, kidney and liver tissues were removed, and bone marrow cells were isolated. […] The reverse-transcribed cDNA samples were analyzed by PCR using ABI GeneAmp™ system 2700 (Applied Biosystems) and the SYBR Green Master Mix kit (Applied Biosystems) using primers targeting toward mouse glyceraldehyde 3-phosphate dehydrogenase (GAPDH) (SEQ ID NOs: 5 and 6), erythropoietin (Epo) (SEQ ID NOs: 3 and 4) and hepatocyte growth factor (HGF) (SEQ ID NOs: 7 and 8) (Table 1). Results were expressed as relative index±S.E. (n=5˜6). […]

Compound: OC[C@H]1O[C@@H](Oc2c(O)cc(O)cc2/C=C/c2ccc(O)cc2)[C@H](O)[C@@H](O)[C@@H]1O [Compound A, 2,3,5,4′-tetrahydroxystilbene 2-O-β-D-glucopyranoside]
- number of red blood cells (RBCs) ([1]; 30~90 mg/kg/day in feed for 2 weeks, time course, FIG. 5): increased the number of red blood cells
- serum BUN levels ([1]; 30~90 mg/kg/day in feed for 2 weeks, time course, FIG. 6): decreased serum BUN levels
- number of RBCs at day 23 ([1]; 30~90 mg/kg/day, day 23, versus control group, FIG. 7): significantly increased the number of RBCs
- serum BUN levels at day 23 ([1]; 30~90 mg/kg/day, day 23, versus control group, FIG. 8): decreasing serum BUN levels
- number of BFU-E colonies of bone marrow cells (relative index) [2]: significantly increased the number of BFU-E colonies
